Results from patent US20240344241A1, “PROTEINACEOUS MOLECULES AND USES THEREFOR” (THE UNIVERSITY OF QUEENSLAND, priority 2021, published 2024).
Bridge positions count the residues as written; N and C are the ends. Peptide text beside a SMILES is read from it.

Legend:
Human β-FXIIa [1] = target: T1, Human β-FXIIa (Homo sapiens, UniProt P00748); test: FXIIa competitive inhibition assay, fluorescent substrate Boc-QGR-MCA; type: biochemical
T1 construct: Human β-FXIIa was obtained from Molecular Innovations, together with human FXa, human FXIa, human α-thrombin, and human plasma kallikrein; purchased Molecular Innovations; host or cells: purified from human plasma
T1 sequence (P00748 373-615 limits assumed, other chains not shown): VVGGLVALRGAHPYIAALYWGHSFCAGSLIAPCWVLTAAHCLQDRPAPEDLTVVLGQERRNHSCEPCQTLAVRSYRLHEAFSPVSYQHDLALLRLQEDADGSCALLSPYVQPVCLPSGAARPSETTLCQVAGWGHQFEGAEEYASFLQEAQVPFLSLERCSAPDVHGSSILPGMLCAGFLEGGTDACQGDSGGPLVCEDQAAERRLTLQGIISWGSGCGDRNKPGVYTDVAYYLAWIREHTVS
Description: Cyclic [I7F]MCoFx1 (also referred to as cyclic MCoFx6) was synthesized using solid phase peptide synthesis ([[…]] [SEQ ID NO: 97]). For this inhibitor, Tyr33 was mutated back to serine as per the original mRNA display screen (FIG. 1). Cyclic MCoFx6 was screened using a competitive inhibition assay, with the substrate being changed from a colorimetric substrate (Ac-QRFR-pNA in the data of Tables 7 and 10) to a fluorescent substrate (Boc-QGR-MCA) to allow the assay to be run with a lower concentration of enzyme. The assay was performed as described for Examples 2 and 3, except that the FXIIa concentration was 0.5 nM and the substrate concentration was 50 μM (KM=187 μM).
The new variants were screened using competitive inhibition assays, with the substrate being changed from a colorimetric substrate (Ac-QRFR-pNA in the data of Tables 7 and 10) to a fluorescent substrate (Boc-QGR-MCA) to allow the assay to be run with a lower concentration of enzyme. Assays were performed as described for Examples 2 and 3, except that the FXIIa concentration was 0.5 nM and the substrate concentration was 50 μM (KM=187 μM). […] The effect of amino acid substitutions within loop 2 (Arg12, Arg13), loop 5 (Ala25, Arg27) or loop 6 (Asp34) on the activity of cyclic MCoFx7 against FXIIa was determined (refer to Table 14). […] Additionally, mutating Arg to Glu (reversing the side chain charge) only led to two-fold weaker activity. The adjacent residue Arg13 could also be mutated to Lys with no change in activity. Within loop 5, mutating Ala25 to Lys produced a slight gain in activity, whereas the Ala to Pro mutation led to a slight decrease in activity. Both mutations at Arg27 led to losses in activity in the order of two-fold (His) or 3.2-fold (Gly).
(§1) The activity of acyclic and cyclic MCoFx1-5 and analogues thereof was assessed in competitive inhibition assays, as previously described in Swedberg et al. (2016) J Med Chem, 59: 7287-7292. Human β-FXIIa was obtained from Molecular Innovations, together with human FXa, human FXIa, human α-thrombin, and human plasma kallikrein. Human cationic trypsin and human plasmin were obtained from Sigma-Aldrich, and recombinant human matriptase was sourced from R&D Systems. Recombinant human urokinase (uPA) and recombinant human tissue plasminogen activator (tPA) were expressed in Expi293 cells, as previously described in Li et al. (2019) Chembiochem, 20: 46-50. FXIIa inhibition assays were performed in clear, low-binding 96-well plates using 250 μL (final volume) of assay buffer (0.1 M Tris-HCl pH 8.0, 0.1 M NaCl, 10 mM CaCl2 and 0.005% Triton X-100). Inhibitors were serially diluted and incubated with 10 nM FXIIa at room temperature to reach equilibrium. After adding 100 μM Ac-QRFR-pNA substrate (KM=162 μM), enzymatic activity was measured by monitoring release of the pNA moiety using a TECAN infinite M1000 Pro plate reader (A=405 nm, reading interval, 10 s; assay time course, 7 min). Assays were conducted in three times in duplicate. Substrate kinetic constants (Michaelis-Menten) and inhibition constants (Morrison K) were determined by non-linear regression using Prism 7 (GraphPad). Selectivity assays with off-target proteases were performed in a similar way, except that different concentrations of enzyme and substrate were used, as indicated in Table 16. For assays using a fluorescent substrate (peptide-4-methylcoumaryl-7-amide, MCA), black low-binding 96-well plates were used and activity was measured using a TECAN infinite M1000 pro plate reader (λex 360 nm, λem 460 nm, reading interval, 30 s; assay time course, 5-30 min).

bovine trypsin = target: T2, bovine trypsin (Bos taurus, UniProt P00760); test: Surface plasmon resonance binding to trypsin; details: for affinity for trypsin (in words): SPR
T2 sequence (P00760 24-246): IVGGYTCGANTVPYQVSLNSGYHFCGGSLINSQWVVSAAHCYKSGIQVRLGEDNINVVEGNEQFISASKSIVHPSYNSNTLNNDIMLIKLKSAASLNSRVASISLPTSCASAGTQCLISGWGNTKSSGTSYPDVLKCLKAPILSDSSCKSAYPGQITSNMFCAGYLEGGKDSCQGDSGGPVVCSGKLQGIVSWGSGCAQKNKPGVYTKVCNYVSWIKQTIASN

Human β-FXIIa [2] = target: T1, Human β-FXIIa; test: FXIIa competitive inhibition assay, colorimetric substrate Ac-QRFR-pNA; type: biochemical
Procedure: as §1

**Q.** With `CC[C@H](C)[C@@H]1NC(=O)CNC(=O)CNC(=O)[C@H](CC(=O)O)NC(=O)[C@H](CO)NC(=O)CNC(=O)[C@H](CO)NC(=O)CNC(=O)[C@@H]2CSSC[C@@H]3NC(=O)[C@H](CC(=O)O)NC(=O)[C@H](CO)NC(=O)[C@H](CC(=O)O)NC(=O)[C@H](CCCNC(=N)N)NC(=O)[C@H](CCCNC(=N)N)NC(=O)[C@@H]4CSSC[C@H](NC(=O)[C@H]([C@@H](C)CC)NC(=O)[C@H](CSSC[C@H](NC1=O)C(=O)N1CCC[C@H]1C(=O)N[C@@H](CCCNC(=N)N)C(=O)N[C@@H]([C@@H](C)CC)C(=O)NCC(=O)N[C@@H](CCCNC(=N)N)C(=O)N[C@@H](CC(C)C)C(=O)N4)NC(=O)[C@H](C)NC(=O)CNC(=O)[C@@H]1CCCN1C3=O)C(=O)N[C@@H](CCCNC(=N)N)C(=O)N[C@@H](CCCCN)C(=O)N[C@@H]([C@@H](C)O)C(=O)N[C@@H](CCCNC(=N)N)C(=O)N[C@@H](Cc1ccccc1)C(=O)N2` [Cyclic [A25K]MCoFx7] (cyclo(ACICRKTRFCGSGSDGGICPRIGRLCRRDSDCPG); disulfide 2-19, 4-26, 10-32) as the molecule, how does the Ki (Human β-FXIIa [1]) read?
**A.** Its Ki is 0.046 ± 0.005 nM.

**Q.** How did the Ki (Human β-FXIIa [1]) turn out when `CC[C@H](C)[C@@H]1NC(=O)CNC(=O)CNC(=O)[C@@H]2CCCN2C(=O)[C@H](CO)NC(=O)CNC(=O)[C@H](CO)NC(=O)CNC(=O)[C@@H]2CSSC[C@@H]3NC(=O)[C@H](CC(=O)O)NC(=O)[C@H](CO)NC(=O)[C@H](CC(=O)O)NC(=O)[C@H](CCCNC(=N)N)NC(=O)[C@H](CCCNC(=N)N)NC(=O)[C@@H]4CSSC[C@H](NC(=O)[C@H]([C@@H](C)CC)NC(=O)[C@H](CSSC[C@H](NC1=O)C(=O)N1CCC[C@H]1C(=O)N[C@@H](CCCNC(=N)N)C(=O)N[C@@H]([C@@H](C)CC)C(=O)NCC(=O)N[C@@H](CCCNC(=N)N)C(=O)N[C@@H](CC(C)C)C(=O)N4)NC(=O)[C@H](C)NC(=O)CNC(=O)[C@@H]1CCCN1C3=O)C(=O)N[C@@H](CCCNC(=N)N)C(=O)N[C@@H](C)C(=O)N[C@@H]([C@@H](C)O)C(=O)N[C@@H](CCCNC(=N)N)C(=O)N[C@@H](Cc1ccccc1)C(=O)N2` [Cyclic [D34P]MCoFx7] (cyclo(ACICRATRFCGSGSPGGICPRIGRLCRRDSDCPG); disulfide 2-19, 4-26, 10-32) was run?
**A.** Its Ki is 0.091 nM.

**Q.** With `CC[C@H](C)[C@@H]1NC(=O)CNC(=O)CNC(=O)[C@H](CC(=O)O)NC(=O)[C@H](CO)NC(=O)CNC(=O)[C@H](CO)NC(=O)CNC(=O)[C@@H]2CSSC[C@@H]3NC(=O)[C@H](CC(=O)O)NC(=O)[C@H](CO)NC(=O)[C@H](CC(=O)O)NC(=O)[C@H](CCCNC(=N)N)NC(=O)[C@H](CCC(=O)O)NC(=O)[C@@H]4CSSC[C@H](NC(=O)[C@H]([C@@H](C)CC)NC(=O)[C@H](CSSC[C@H](NC1=O)C(=O)N1CCC[C@H]1C(=O)N[C@@H](CCCNC(=N)N)C(=O)N[C@@H]([C@@H](C)CC)C(=O)NCC(=O)N[C@@H](CCCNC(=N)N)C(=O)N[C@@H](CC(C)C)C(=O)N4)NC(=O)[C@H](C)NC(=O)CNC(=O)[C@@H]1CCCN1C3=O)C(=O)N[C@@H](CCCNC(=N)N)C(=O)N[C@@H](C)C(=O)N[C@@H]([C@@H](C)O)C(=O)N[C@@H](CCCNC(=N)N)C(=O)N[C@@H](Cc1ccccc1)C(=O)N2` [Cyclic [R12E]MCoFx7] (cyclo(ACICRATRFCGSGSDGGICPRIGRLCERDSDCPG); disulfide 2-19, 4-26, 10-32) as the molecule, how does the Ki (Human β-FXIIa [1]) read?
**A.** The Ki was 0.13 ± 0.007 nM.

**Q.** What does the source list for `CC[C@H](C)[C@@H]1NC(=O)[C@@H]2CSSC[C@H](NC(=O)[C@H](CCCNC(=N)N)NC(=O)CNC(=O)CNC(=O)[C@@H](N)CC(=O)O)C(=O)N[C@@H](CS)C(=O)NCC(=O)NCC(=O)N[C@@H](Cc3ccc(O)cc3)C(=O)N[C@@H](CC(C)C)C(=O)N[C@@H](C(C)C)C(=O)N[C@H]3CSSC[C@H](NC1=O)C(=O)N[C@@H](C(C)C)C(=O)N[C@@H](Cc1ccccc1)C(=O)N[C@@H](CCCCN)C(=O)N[C@@H](CCCCN)C(=O)N[C@@H](Cc1c[nH]cn1)C(=O)N[C@H](C(=O)NCC(=O)N[C@@H](CO)C(=O)NCC(=O)N[C@@H](CO)C(=O)O)CSSC[C@H](NC(=O)[C@H](CC(=O)O)NC(=O)[C@H](CO)NC(=O)[C@H](CC(=O)O)NC(=O)[C@H](CCCNC(=N)N)NC(=O)[C@H](CCCNC(=N)N)NC3=O)C(=O)N1CCC[C@H]1C(=O)NCC(=O)N[C@@H](C)C(=O)N2` [MCoFx5 acyclic] (H-DGGRCCGGYLVCRRDSDCPGACICVFKKHCGSGS-OH; disulfide 5-22, 12-24, 18-30)?
**A.** affinity for trypsin (in words) (bovine trypsin): Neither aMCoFx5 nor cMCoFx5 showed detectable affinity for trypsin; KD (nM) Trypsin Acyclic (bovine trypsin; Table 8, acyclic form): No binding

**Q.** Which “affinity for trypsin (in words)” value (bovine trypsin) does the source give for `CC[C@H](C)[C@@H]1NC(=O)[C@@H]2CSSC[C@@H]3NC(=O)[C@H](CCCNC(=N)N)NC(=O)CNC(=O)CNC(=O)[C@H](CC(=O)O)NC(=O)[C@H](CO)NC(=O)CNC(=O)[C@H](CO)NC(=O)CNC(=O)[C@@H]4CSSC[C@H](NC(=O)[C@H](CC(=O)O)NC(=O)[C@H](CO)NC(=O)[C@H](CC(=O)O)NC(=O)[C@H](CCCNC(=N)N)NC(=O)[C@H](CCCNC(=N)N)NC(=O)[C@H](CSSC[C@H](NC1=O)C(=O)N[C@@H](C(C)C)C(=O)N[C@@H](Cc1ccccc1)C(=O)N[C@@H](CCCCN)C(=O)N[C@@H](CCCCN)C(=O)N[C@@H](Cc1c[nH]cn1)C(=O)N4)NC(=O)[C@H](C(C)C)NC(=O)[C@H](CC(C)C)NC(=O)[C@H](Cc1ccc(O)cc1)NC(=O)CNC(=O)CNC(=O)[C@H](CS)NC3=O)C(=O)N1CCC[C@H]1C(=O)NCC(=O)N[C@@H](C)C(=O)N2` [MCoFx5 cyclic] (cyclo(DGGRCCGGYLVCRRDSDCPGACICVFKKHCGSGS); disulfide 5-22, 12-24, 18-30) here?
**A.** Its value is “Neither aMCoFx5 nor cMCoFx5 showed detectable affinity for trypsin”.

**Q.** And the “KD (nM) Trypsin Cyclic” value (bovine trypsin; Table 8, cyclic form)?
**A.** The value was “No binding”.

**Q.** `CC[C@H](C)[C@@H]1NC(=O)[C@H](CCCNC(=N)N)NC(=O)[C@@H]2CCCN2C(=O)[C@@H](NC(=O)[C@@H](NC(=O)[C@@H](N)CCCNC(=N)N)[C@@H](C)CC)CSSC[C@@H]2NC(=O)[C@H](C)NC(=O)CNC(=O)[C@@H]3CCCN3C(=O)[C@@H]3CSSC[C@@H](C(=O)NCC(=O)O)NC(=O)[C@H](Cc4ccccc4)NC(=O)[C@H](CCCNC(=N)N)NC(=O)[C@H]([C@@H](C)O)NC(=O)[C@H](C)NC(=O)[C@H](CCCNC(=N)N)NC(=O)[C@H](CSSC[C@H](NC(=O)[C@H](CC(C)C)NC(=O)[C@H](CCCNC(=N)N)NC(=O)CNC1=O)C(=O)N[C@@H](CCCNC(=N)N)C(=O)N[C@@H](CCCNC(=N)N)C(=O)N[C@@H](CC(=O)O)C(=O)N[C@@H](CO)C(=O)N[C@@H](CC(=O)O)C(=O)N3)NC(=O)[C@H]([C@@H](C)CC)NC2=O` [SEQ ID NO: 84] (H-RICPRIGRLCRRDSDCPGACICRATRFCG-OH; disulfide 3-20, 10-22, 16-28) was tested. Which Ki (Human β-FXIIa [2]) did it give?
**A.** The Ki was 1.4 nM.
